US20080146651A1, “Injectable Composition for the Treatment of Cancers” (priority 2004, published 2008)

Test: Stability test of paclitaxel according to varying pH values (HPLC residual percentage)
Format: physicochemical
Conditions: for Initial residual percentage (0 hour) / Residual percentage after 24 hours / Residual percentage after 48 hours: 40° C.

- residual percentage (around pH 5, for 48 hours): ≥ 99%
- Initial residual percentage (0 hour) (pH 3, McIlvaine buffer): 100%
- Residual percentage after 24 hours (pH 3, McIlvaine buffer): 99.239%
- Residual percentage after 48 hours (pH 3, McIlvaine buffer): 97.509%
- Initial residual percentage (0 hour) (pH 4, McIlvaine buffer): 100%
- Residual percentage after 24 hours (pH 4, McIlvaine buffer): 99.025%
- Residual percentage after 48 hours (pH 4, McIlvaine buffer): 98.221%
- stability of paclitaxel with the passage of time (pH 4˜6): stable
- residual percentage (pH 4˜6, for 48 hours): ≥ 98%
- Initial residual percentage (0 hour) (pH 5, McIlvaine buffer): 100%
- Residual percentage after 24 hours (pH 5, McIlvaine buffer): 99.414%
- Residual percentage after 48 hours (pH 5, McIlvaine buffer): 99.292%
- Initial residual percentage (0 hour) (pH 6, McIlvaine buffer): 100%
- Residual percentage after 24 hours (pH 6, McIlvaine buffer): 98.765%
- Residual percentage after 48 hours (pH 6, McIlvaine buffer): 98.183%
- Initial residual percentage (0 hour) (pH 7, McIlvaine buffer): 100%
- Residual percentage after 24 hours (pH 7, McIlvaine buffer): 96.109%
- Residual percentage after 48 hours (pH 7, McIlvaine buffer): 94.344%
- Initial residual percentage (0 hour) (pH 8, McIlvaine buffer): 100%
- Residual percentage after 24 hours (pH 8, McIlvaine buffer): 77.297%
- Residual percentage after 48 hours (pH 8, McIlvaine buffer): 57.38%
Compound: CC(=O)O[C@H]1C(=O)[C@@]2(C)[C@H]([C@H](OC(=O)c3ccccc3)[C@]3(O)C[C@H](OC(=O)[C@H](O)[C@@H](NC(=O)c4ccccc4)c4ccccc4)C(C)=C1C3(C)C)[C@]1(OC(C)=O)CO[C@@H]1C[C@@H]2O [paclitaxel]
